In test [1] the test system is P. acnes NCTC 737. The test is described as follows: Minimum Inhibitory Concentration (MIC) assay. It counts as cell-based, Propionibacterium acnes. The note with it: for MIC: anaerobic, 37° C., 72 hours. The procedure:
(§1) The propionibacteria were cultured and maintained on Wilkins-Chalgren Anaerobe Medium (agar and broth) at pH 6.0; all cultures were incubated anaerobically at 37° C. for 72 hours.
(a) Minimum Inhibitory Concentration (MIC) Assay
This is a standard international method for quantitatively assessing the antimicrobial activity of a compound in a liquid medium. The method used a sterile 96-well microtitre plate, capable of holding about 200 μl of liquid per well. The wells contained liquid culture medium and ranges of decreasing concentrations of the relevant test compound in doubling dilutions (eg, 1000, 500, 250, 125 . . . μg/ml, etc. down to 0.49 μg/ml). The culture medium was as described above.
The wells were inoculated with a liquid suspension of freshly grown micro-organism and incubated under the conditions described above. After incubation, the microtitre plate was examined visually (with the aid of a light box) for cloudiness in each well, which would indicate microbial growth. The MIC value was recorded as the lowest concentration of test compound required to inhibit microbial growth, ie, the lowest concentration for which the liquid in the well remained clear.
The assays were conducted in duplicate and included both negative (culture medium with no micro-organisms) and positive (culture medium plus diluting solvent plus micro-organism) controls.
(§2) The following experiments all used P. acnes NCTC 737 as the test organism.
(§3) MIC, MBC and DDA assays, as described above, were carried out using the test compounds (a) dequalinium chloride (DC), dissolved in ethanol and (b) zinc pyrithione (ZP), dissolved in DMSO. Both compounds were sourced from Sigma-Aldrich, UK.
(§4) The general method of Example 1 was repeated using another bis-quinolinium salt, dequalinium iodide (DI), which was also obtained from Sigma-Aldrich, UK. This compound was tested against P. acnes NCTC 737, both alone and in combination with ZP.

In test [2] the test system is P. acnes NCTC 737. The test is described as follows: Disc diffusion / synergy disc diffusion assay ((S)DDA). The test is classed as cell-based, Propionibacterium acnes. The procedure:
as §1
(c) Disc Diffusion Assay (DDA)
This is an internationally recognised standard method for qualitatively assessing the antimicrobial activity of a compound.
A sterile paper disc was impregnated with a sample of the test compound in a suitable solvent and 30 minutes allowed for the solvents to evaporate (where possible). The disc was then placed on an agar plate onto which the test micro-organism had been inoculated. The plate was then incubated under the conditions described above, following which it was examined visually for signs of microbial growth. […] The diameter of this zone of “inhibition” was measured using a ProtoCOL™ automated zone sizer (Synbiosis, Cambridge, UK).
(d) Synergy Disc Diffusion Assay (SDDA)
This is a variation on the DDA method, in which two compounds are tested together for their combined antimicrobial activity.
Two test compounds A and B were placed on a single paper disc and the above described DDA procedure repeated.
Mixtures of the two test compounds were then subjected to SDDA assays as described above.
For the (S)DDA experiments, 50 μg of the DC was loaded onto each disc, and 200 μg of the ZP. All the (S)DDA experiments were conducted in triplicate.
For the (S)DDA experiments, 50 μg of the DI was loaded onto each disc, and 200 μg of the ZP. The DI and ZP were both dissolved in DMSO.
All the (S)DDA experiments were conducted in triplicate.
In general terms: In agar diffusion tests the substance spreads into inoculated agar from a disc or well.

For test [3], the system named is P. acnes NCTC 737. The test is described as follows: Minimum Bactericidal Concentration (MBC) assay. It counts as cell-based, Propionibacterium acnes. The note with it: for MBC: sub-culture after MIC assay. The method, then: as §1
(b) Minimum Bactericidal Concentration (MBC) Assay
This assay, normally carried out after an MIC assay, determines the minimum concentration of a compound that is lethal to the micro-organism being tested.
These samples were then individually sub-cultured on antibiotic-free agar medium, under the incubation conditions described above. Following incubation they were examined visually for bacterial growth.
The ratio of MIC to MBC should ideally be as close to 1 as possible.
as §2, §3, §4

In another test the test system is P. acnes PRP-039. It counts as cell-based, Propionibacterium acnes. The following applies: P. acnes PRP-039 (Tet/MLS); 50 μg DC or 200 μg ZP per disc. The procedure:
(§5) Other propionibacterial strains were also tested, as described in Example 4 below. These included certain antibiotic resistant propionibacteria, such as the two P. acnes strains designated PRP-010 and PRP-039 which are resistant respectively to macrolides-lincosamides-streptogramins-ketolides (MLSK) and to macrolides-lincosamides-streptogramins (MLS) and tetracycline—in other words, PRP-010 is resistant to erythromycin and clindamycin, and PRP-039 to erythromycin, clindamycin and tetracycline.
(§6) Some of these strains have known antibiotic resistance.
(§7) All the experiments were conducted in triplicate.

For the next test, the system named is P. acnes PRP-010. The test is classed as cell-based, Propionibacterium acnes. The following applies: P. acnes PRP-010 (MLSK); 50 μg DC or 200 μg ZP per disc. The procedure:
as §5, §6, §7

For the next test, the system named is P. granulosum PRP-006. The test is classed as cell-based, Propionibacterium granulosum. The following applies: P. granulosum PRP-006 (MLS); 50 μg DC or 200 μg ZP per disc. The procedure: as §6, §7
The subject of a further test is P. granulosum PRP-021. It counts as cell-based, Propionibacterium granulosum. The following applies: P. granulosum PRP-021 (MLS); 50 μg DC or 200 μg ZP per disc. The method, then: as §6, §7
The subject of the next test is P. granulosum PRP-005. It counts as cell-based, Propionibacterium granulosum. The following applies: P. granulosum PRP-005 (MLSK); 50 μg DC or 200 μg ZP per disc. The procedure: as §6, §7
The subject of a further test is P. granulosum PRP-043. It counts as cell-based, Propionibacterium granulosum. The note with it: P. granulosum PRP-043 (MLS); 50 μg DC or 200 μg ZP per disc. The procedure:
as §6, §7

Another test has as its system P. granulosum PRP-019. It counts as cell-based, Propionibacterium granulosum. The note with it: P. granulosum PRP-019 (MLSK); 50 μg DC or 200 μg ZP per disc. The method, then:
as §6, §7

Another test relates to P. granulosum PRP-044. It counts as cell-based, Propionibacterium granulosum. The note with it: P. granulosum PRP-044 (MLS); 50 μg DC or 200 μg ZP per disc. The procedure: as §6, §7
The test system of test [4] is C. difficile ATCC 7000057. The test is described as follows: (S)DDA. It counts as cell-based, Clostridium difficile. The note with it: 50 μg DC or 200 μg ZP per disc. The procedure: The activity of a DC/ZP combination was determined, using (S)DDAs, against two further test micro-organisms, namely C. difficile ATCC 7000057 and Cor. mucifaciens ATCC 700355. A DI/ZP combination was also tested against Cor. mucifaciens.
In these tests, 50 μg (for C. difficile) or 200 μg (for Cor. mucifaciens) of the DC was loaded onto each disc. The DI and the ZP were both loaded at 200 μg per disc. All the (S)DDA experiments were conducted in triplicate.

[5] abbreviates: Example 1, zone of inhibition diameter, 50 μg DC or 200 μg ZP per disc.

In general, MIC refers to the least concentration at which growth counts as inhibited. One may read the MBC as the smallest concentration meeting the test's criterion for killing. Turning to zinc pyrithione [ZP], the “activity of compound alone (MIC, MBC, DDA data)” value in the test on P. acnes NCTC 737 [1] is recorded as “active”. Also, the MIC in the test with P. acnes NCTC 737 [1] is 0.98 µg/mL. For the same molecule, the DDA in the test with P. acnes NCTC 737 [2] (setting [5]) was determined as 15.85 mm; in the test on P. acnes NCTC 737 [2] (Example 3, zone of inhibition diameter, 50 μg DI or 200 μg ZP per disc, both in DMSO) it was 46.44 mm; in the test with P. acnes PRP-039, 29.70 mm; in the test on P. acnes PRP-010, 20.96 mm; in the test on P. granulosum PRP-006, 32.58 mm; with P. granulosum PRP-021, 29.70 mm. The DDA worked out at 20.04 mm in the test on P. granulosum PRP-005; 43.37 mm in the test on P. granulosum PRP-043; 19.73 mm in the test with P. granulosum PRP-019; 18.50 mm in the test with P. granulosum PRP-044; 20.31 mm in [4]. The MIC/MBC ratio in the test on P. acnes NCTC 737 [3] was determined as 0.125. In addition, the MBC in the test with P. acnes NCTC 737 [3] came out at 7.8 µg/mL.

`Cc1cc(N)c2ccccc2[n+]1CCCCCCCCCC[n+]1c(C)cc(N)c2ccccc21.[Cl-].[Cl-]` [DC, dequalinium chloride]: the “activity of compound alone (MIC, MBC, DDA data)” value in the test with P. acnes NCTC 737 [1] is given as “active”. In the test on P. acnes NCTC 737 [1], the MIC was found to be 7.8 µg/mL. The DDA in the test with P. acnes NCTC 737 [2] (setting [5]) is 16.68 mm; with P. acnes PRP-039 it was 28.98 mm; in the test with P. acnes PRP-010, 17.37 mm; in the test with P. granulosum PRP-006, 26.82 mm; in the test on P. granulosum PRP-021, 27.95 mm; in the test on P. granulosum PRP-005, 20.55 mm. Besides, the DDA with P. granulosum PRP-043 was 23.02 mm; with P. granulosum PRP-019 it was 18.91 mm; with P. granulosum PRP-044, 17.37 mm; in test [4] it was 0.0 mm. Also, the MIC/MBC ratio in the test on P. acnes NCTC 737 [3] is on record as 0.5. Also, the minimum bactericidal concentration (MBC) with P. acnes NCTC 737 [3] was 15.6 µg/mL.

The record behind these values is patent US20100291168A1, “ANTIMICROBIAL FORMULATIONS COMPRISING A COMBINATION OF A PYRIDINE THIOL AND A BIS-QUINOLINIUM SALT” (priority 2007, published 2010).
